These results are taken from patent US10660967B2, “Curcumin conjugates and methods of use thereof” (priority 2016, dated 2020).

The test system of data set [1] is PHA-stimulated splenocytes. Put plainly: Proliferative response of PHA-stimulated splenocytes (MTT assay). Type of data set: cell-based. The note with it: PHA 5 μg/ml, 72 hr; compounds at 5 μM (method says 10 μM); ratio of O.D. versus vehicle control. Here is the method: Immunomodulatory effects of the synthesized curcumin conjugates on the proliferative response of PHA-stimulated splenocytes were evaluated. The effect of curcumin and its amino acid conjugates on splenocyte viability and proliferation in response to a T cell miotgen (Phytohaemagglutinin; PHA) was evaluated using the MTT assay. Freshly prepared splenocytes (1×10^6 cells/200 μl/well) were cultured in a 96-well U-bottom microtiter plate (Nunc) in complete medium. Cells were treated with tested compounds at a final concentration of 10 μM, vehicle (DMSO) or left untreated in triplicate then incubated at 37° C. and 5% CO2. When testing the immunoregulatory effects of the compounds on splenocyte stimulation, PHA (5 μg/ml) was added to the culture media to induce T cell proliferation. The proliferative response to PHA+vehicle and vehicle alone served as controls. After 72 hr, media were removed after pelleting the cells by centrifugation and MTT salt solution (5 mg/ml) was added into each well then incubated at 37° C. for 4 h. Afterwards, formazan crystals were dissolved by adding 150 μl 10% sodium dodecyl sulfate (SDS). Absorbance was measured with a spectrophotometer at 570 nm and reference wavelength of 690 nm.
Splenocyte stimulation index was determined as the ratio of O.D. values in tested compounds versus vehicle control cultures.

Data set [2] concerns lipopolysaccharide-stimulated peritoneal macrophages. Put plainly: Production of nitric oxide by lipopolysaccharide-stimulated peritoneal macrophages (Greiss reagent). Type of data set: cell-based. Also noted: Potency (%): % inhibition of nitric oxide production relative to lipopolysaccharide-stimulated macrophages: concentration or dose not given beside the values. The settings on record: LPS-stimulated peritoneal macrophages; for Nitric oxide (nitrite) concentration, μM (average ± SD): 24 h, nitrite by Greiss reagent. Here is the method:
The effects of the synthesized curcumin conjugates on the production of nitric oxide (μM) by lipopolysaccharide-stimulated peritoneal macrophages were evaluated.
Two milliliters of macrophage cells were seeded in 12-well tissue culture plates in nitrite-free medium supplemented with 0.1% bovine serum albumin and incubated at 37° C. LPS±epinephrine, norepinephrine, or dopamine at […] concentrations was added to some wells. The concentrations of LPS used ranged from 0.5 to 10 ng/ml. After incubation for 24 h, supernatants were collected for measuring nitric oxide (NO) by spectrophotometry. The production of NO was determined from the accumulation of nitrite (NO2), the metabolic end product of NO metabolism, in the medium using the Greiss reagent. About equal volumes (100 μl) of sample and Greiss reagent (1:1 mixture of 1% sulfanilamide in 5% phosphoric acid, and 0.1% a-naphthylamine in distilled water) were mixed and incubated at room temperature for 15 min, and absorbance was measured at 532 nm on a spectrophotometer.

For data set [3], the system named is Salmonella typhi ATCC19430. The experiment in a line: Antimicrobial MIC, agar dilution. Type of data set: cell-based. The settings on record: Salmonella enterica, read-out: Minimum inhibitory concentration (MIC).
The subject of data set [4] is HCT116 (colon) carcinoma cell line. The experiment in a line: Anti-tumor properties, MTT. Type of data set: cell-based. The note with it: Homo sapiens, HCT-116, 72 h; for activity at 100 µM: HCT116, 100 μM, read-out: Percentage growth of tumor cell lines treated with the tested compounds (±SD). Here is the method: (§1) Anti-tumor properties of curcumin conjugates were evaluated. The synthesized curcumin-amino acid conjugates and curcumin itself were screened for their antitumor properties against human tumor cell lines utilizing HepG2 (hepatocellular), MCF7 (breast), and HCT116 (colon) carcinoma cell lines by the standard mitochondrial dependent reduction of yellow MTT [3-(4,5-dimethylthiazol-2-yl)-2,5-diphenyl-tetrazolium bromide] to purple formazan technique. Cancer cells were obtained from the Egyptian Company for Production of Vaccines, Sera and Drugs (VACSERA), Cairo, Egypt. Media, chemicals and supplies for the bio-assay were obtained from Biowest, Gibco and Lonza Companies. Cells were suspended in RPMI-1640 medium for HepG2, DMEMF12 for MCF-7, and DMEM for HCT116 in addition to 1% antibiotic-antimycotic mixture (10 […] potassium penicillin, 10 […] streptomycin sulfate and […] amphotericin B), 10% fetal bovine serum and 1% L-glutamine at 37° C., under 5% CO2 and 95% humidity. Cells were seeded at a concentration of 10×10^3 cells per well in fresh complete growth medium in 96-well tissue culture microtiter plates for 24 h. Media was aspirated, 180 μL fresh medium (without serum) were added and cells were incubated with different concentrations of sample to give a final concentration of 100 μM. 0.5% DMSO was used as a negative control and doxorubicin was used as a positive control (standard reference). Triplicate wells were prepared for each individual tested compound/dose. After 72 h of incubation, the medium was aspirated, 40 μL MTT salt (2.5 mg ml^1) were added to each well and incubated for an additional 4 h at 37° C. To stop the reaction and dissolve the formed crystals, 200 μL of 10% sodium dodecyl sulfate (SDS) in deionized water were added to each well and incubated overnight at 37° C. The absorbance was then measured at 595 nm with a reference wavelength of 620 nm. Data were collected as mean values for experiments performed in triplicates for each compound which had been measured by MTT assay.
(§2) The percentage of cell survival was calculated according to equation (4): […]
(§3) The IC50 was determined using Graph-Pad PRISM version-5 software. Statistical calculations for determination of the mean and standard deviation (SD) values were determined by SPSS 16 software.

In data set [5] the test system is HepG2 (hepatocellular) carcinoma cell line. Put plainly: Anti-tumor properties, MTT. The settings on record: Homo sapiens, 72 h; for activity at 100 µM: HepG2, 100 μM, read-out: Percentage growth of tumor cell lines treated with the tested compounds (±SD). Type of data set: cell-based. Here is the method:
as §1, §2, §3

The test system of data set [6] is MCF7 (breast) carcinoma cell line. The experiment in a line: Anti-tumor properties, MTT. The data set is classed as cell-based. The note with it: Homo sapiens, 72 h; for activity at 100 µM: MCF7, 100 μM, read-out: Percentage growth of tumor cell lines treated with the tested compounds (±SD). Here is the method:
as §1, §2, §3

Data set [7] relates to MCF-7 cells. Put plainly: Effect on doxorubicin induced cytotoxicity (MTT). The settings on record: for viability at 100 µM: read-out: Percentage of viable cells MCF-7 (average ± SD). Here is the method:
The effects of curcumin conjugates on doxorubicin induced cytotoxicity were evaluated. In order to further examine whether curcumin derivatives can enhance conventional chemotherapeutic agents, MCF-7 cells were treated with 100 μM curcumin derivatives alone or in combination with 10 μM doxorubicin (DOX) for 48 hr. Control cultures received only medium, vehicle (DMSO), or vehicle+DOX. The percentage of viable cells was determined by MTT assay according to equation (5): […]

Data set [8] concerns Staphylococcus aureus ATCC25923. Put plainly: Antimicrobial MIC, agar dilution. A general note: In agar dilution the substance is mixed into plates at graded concentrations.
Data set [9] concerns Streptococcus pyogenes ATCC19615. The experiment in a line: Antimicrobial MIC, agar dilution.
Data set [10] relates to Pseudomonas aeruginosa ATCC27853. The experiment in a line: Antimicrobial MIC, agar dilution.
Data set [11] relates to Candida albicans (local isolate). Put plainly: Antimicrobial MIC, agar dilution. The settings on record: Candida albicans, read-out: Minimum inhibitory concentration (MIC).
The mark [12] stands for this setting: 10 μM DOX in combination with 100 μM curcumin derivative, 48 hr.
[13] abbreviates: ATCC25923, 18 h, read-out: Minimum inhibitory concentration (MIC).
The mark [14] stands for this setting: ATCC25923, read-out: Minimum inhibitory concentration (MIC).
The mark [15] stands for this setting: ATCC19615, 18 h, read-out: Minimum inhibitory concentration (MIC).
Setting [16] is: ATCC19615, read-out: Minimum inhibitory concentration (MIC).
Setting [17] is: ATCC27853, 18 h, read-out: Minimum inhibitory concentration (MIC).
[18] abbreviates: ATCC27853, read-out: Minimum inhibitory concentration (MIC).

Where two headings read alike, the source gives them in different places.

For `COc1cc(/C=C/C(=O)CC(=O)/C=C/c2ccc(OC(=O)[C@H](CC(C)C)NC(=O)OCC3c4ccccc4-c4ccccc43)c(OC)c2)ccc1OC(=O)[C@H](CC(C)C)NC(=O)OCC1c2ccccc2-c2ccccc21` [Fmoc-Leu-Cur, ((1E,6E)-3,5-dioxohepta-1,6-diene-1,7-diyl)bis(2-methoxy-4,1-phenylene) (2S,2′S)-bis(2-((((9H-fluoren-9-yl)methoxy)carbonyl)amino)-4-methylpentanoate)], the “Stimulation Index (average ± SD)” value in data set [1] was 2.16 ± 0.13. Moreover, the “Potency (%): % inhibition of nitric oxide production relative to lipopolysaccharide-stimulated macrophages” value in data set [2] was found to be 21.88%. Also, the “Nitric oxide (nitrite) concentration, μM (average ± SD)” value (shortened to “Nitric oxide … (average ± SD)”) in data set [2] came out at 21.34 ± 0.86 µM. Also, the MIC in [3] (18 h) came to 0.5 mg/L; in data set [3], 0.481 µM; in [8] (setting [13]), 0.25 mg/L; in data set [8] (setting [14]), 0.241 µM; in data set [9] (setting [15]), 0.5 mg/L; in data set [9] (setting [16]), 0.481 µM. Further, the MIC stood at 0.25 mg/L in [10] (setting [17]), 0.241 µM in data set [10] (setting [18]), 0.5 mg/L in [11] (18 h) and 0.481 µM in data set [11]. In addition, the activity at 100 µM stood at 99.5 ± 3.8% in [4], 103 ± 2.6% in [5] and 83 ± 1.1% in data set [6]. Also, in data set [7] (setting [12]), the “Percentage of viable cells MCF-7 (average ± SD)” value (shortened to “Percentage … (average ± SD)”) is 41.16 ± 2.33. For the same molecule, the viability at 100 µM in data set [7] (Homo sapiens, MCF7, 48 h) is 98.2 ± 2.98%.
With `COc1cc(/C=C/C(=O)CC(=O)/C=C/c2ccc(OC(=O)[C@H](Cc3c[nH]c4ccccc34)NC(=O)OCc3ccccc3)c(OC)c2)ccc1OC(=O)[C@H](Cc1c[nH]c2ccccc12)NC(=O)OCc1ccccc1` [Cbz-Trp-Cur, ((1E,6E)-3,5-dioxohepta-1,6-diene-1,7-diyl)bis(2-methoxy-4,1-phenylene) (2S,2′S)-bis(2-(((benzyloxy)carbonyl)amino)-3-(1H-indol-3-yl)propanoate)], the “Stimulation Index (average ± SD)” value in [1] is listed as 2.60 ± 0.12. In addition, in data set [2], the “Potency (%): % inhibition of nitric oxide production relative to lipopolysaccharide-stimulated macrophages” value is given as 11.08%. Moreover, in [2], the “Nitric oxide … (average ± SD)” value came out at 24.28 ± 0.82 µM. Moreover, the MIC was found to be 0.125 mg/L in data set [3] (18 h); 0.124 µM in [3]; 0.125 mg/L in [8] (setting [13]); 0.124 µM in data set [8] (setting [14]); 0.5 mg/L in data set [9] (setting [15]); 0.496 µM in data set [9] (setting [16]). Besides, the MIC in [10] (setting [17]) is 0.25 mg/L; in data set [10] (setting [18]) it was 0.248 µM; in data set [11] (18 h) it was 1 mg/L; in data set [11], 0.991 µM. Moreover, the activity at 100 µM stood at 100 ± 7% in [4], 97.6 ± 6.8% in [5] and 79.5 ± 0.6% in [6]. Further, the “Percentage … (average ± SD)” value in [7] (setting [12]) came to 45.17 ± 4.04. Moreover, the viability at 100 µM in data set [7] (Homo sapiens, MCF7, 48 h) is 98.2 ± 2.96%.
On to `COc1cc(/C=C/C(=O)CC(=O)/C=C/c2ccc(OC(=O)[C@@H](NC(=O)OCc3ccccc3)C(C)C)c(OC)c2)ccc1OC(=O)[C@@H](NC(=O)OCc1ccccc1)C(C)C` [Cbz-Val-Cur, ((1E,6E)-3,5-dioxohepta-1,6-diene-1,7-diyl)bis(2-methoxy-4,1-phenylene) (2S,2′S)-bis(2-(((benzyloxy)carbonyl)amino)-3-methylbutanoate)], for which, in data set [1], the “Stimulation Index (average ± SD)” value turned out to be 2.87 ± 0.11. In addition, the “Potency (%): % inhibition of nitric oxide production relative to lipopolysaccharide-stimulated macrophages” value in data set [2] came to 5.68%. Further, in data set [2], the “Nitric oxide … (average ± SD)” value was found to be 25.76 ± 0.99 µM. In addition, the MIC in data set [3] (18 h) was found to be 0.125 mg/L; in data set [3], 0.15 µM; in data set [8] (setting [13]) it was 0.125 mg/L; in [8] (setting [14]), 0.15 µM; in data set [9] (setting [15]) it was 0.5 mg/L; in data set [9] (setting [16]), 0.599 µM. In addition, the MIC was found to be 0.25 mg/L in [10] (setting [17]), 0.299 µM in [10] (setting [18]), 1 mg/L in data set [11] (18 h) and 1.2 µM in [11]. In addition, the activity at 100 µM is 112 ± 7.9% in data set [4], 92.4 ± 2.8% in data set [5] and 85% in [6]. Besides, in data set [7] (setting [12]), the “Percentage … (average ± SD)” value is 49.68 ± 1.46. In addition, the viability at 100 µM in data set [7] (Homo sapiens, MCF7, 48 h) was 99.2 ± 2.15%.
Broadly, the IC50 is the concentration that gives 50% inhibition. For the molecule `COc1cccc2c1C(=O)c1c(O)c3c(c(O)c1C2=O)C[C@@](O)(C(=O)CO)C[C@@H]3O[C@H]1C[C@H](N)[C@H](O)[C@H](C)O1` [DOX, doxorubicin, reference compound], the IC50 in data set [4] (HCT116, MTT, read-out: IC50) is 7.17 µM; in [5] (HepG2, MTT, read-out: IC50) it was 34.2 µM; in data set [6] (MCF7, MTT, read-out: IC50), 20.9 µM. The viability at 10 µM in data set [7] (Homo sapiens, MCF7, 48 h, read-out: Percentage of viable cells MCF-7 (average ± SD), 10 μM DOX in combination with 100 μM curcumin derivative, 48 hr) was found to be 44.8%. Moreover, the “Percentage … (average ± SD)” value in data set [7] (human, 48 h, 100 μM) stood at 0 ± 0.00.
